Data: the supplement of paper PMC10307832

Legend:
Assay in all cases: relative viability (nuclei count vs DMSO), 5 days (fraction); higher = more cells survive
[1] = compound: CC(C)C[C@H](NC(=O)[C@H](CCc1ccccc1)NC(=O)CN1CCOCC1)C(=O)N[C@@H](Cc1ccccc1)C(=O)N[C@@H](CC(C)C)C(=O)[C@@]1(C)CO1 [Carfilzomib] + CS(=O)(=O)CCNCc1ccc(-c2ccc3ncnc(Nc4ccc(OCc5cccc(F)c5)c(Cl)c4)c3c2)o1 [Lapatinib] (partner 2 µM)
Outline: (§1)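 Relative viability equals treated-well nuclei counts divided by vehicle-well nuclei counts. Counts came from 4× images of lung cancer cell lines grown in 1536-well plates for 5 days after pin-tool dosing on the day after seeding. Dosing used one drug alone or a fixed anchor-drug dose plus five library-drug doses (not always all listed) in √10 steps, and values are medians of duplicate plates.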

[2] = compound: CC(C)C[C@H](NC(=O)[C@H](CCc1ccccc1)NC(=O)CN1CCOCC1)C(=O)N[C@@H](Cc1ccccc1)C(=O)N[C@@H](CC(C)C)C(=O)[C@@]1(C)CO1 [Carfilzomib] + Nc1nc2[nH]cc(CCc3ccc(C(=O)N[C@@H](CCC(=O)O)C(=O)O)cc3)c2c(=O)[nH]1 [Pemetrexed] (partner 0.2 µM)
Outline: as §1

[3] = compound: C[C@@H](Oc1cc(-c2cnn(C3CCNCC3)c2)cnc1N)c1c(Cl)ccc(F)c1Cl [Crizotinib] + Nc1ncn([C@H]2C[C@H](O)[C@@H](CO)O2)c(=O)n1 [Decitabine] (partner 2 µM)
Outline: as §1

[4] = compound: O=C(c1cc(Cc2n[nH]c(=O)c3ccccc23)ccc1F)N1CCN(C(=O)C2CC2)CC1 [Olaparib] + N=C(N)NC(=N)NCCc1ccccc1 [Phenformin] (partner 250 µM)
Outline: as §1

Cell Line	relative viability ([1]; first compound 0.001 µM)	relative viability ([1]; first compound 0.003162 µM)	relative viability ([1]; first compound 0.01 µM)	relative viability ([1]; first compound 0.03162 µM)	relative viability ([1]; first compound 0.1 µM)	relative viability ([2]; first compound 0.001 µM)	relative viability ([2]; first compound 0.003162 µM)	relative viability ([2]; first compound 0.01 µM)	relative viability ([2]; first compound 0.03162 µM)	relative viability ([2]; first compound 0.1 µM)	relative viability ([3]; first compound 0.01 µM)	relative viability ([3]; first compound 0.03162 µM)	relative viability ([3]; first compound 0.1 µM)	relative viability ([3]; first compound 0.3162 µM)	relative viability ([3]; first compound 1 µM)	relative viability ([4]; first compound 0.08 µM)	relative viability ([4]; first compound 0.253 µM)	relative viability ([4]; first compound 2.53 µM)	relative viability ([4]; first compound 8 µM)
LCLC-97TM1	0.73	1.58	0.957	0.282	0.142	0.164	0.176	0.173	0.167	0.0627	0.214	0.235	0.212	0.248	0.303	0.439	0.414	0.428	0.429
LK-2	0.673	1.19	0.72	0.226	0.217	0.304	0.295	0.273	0.0987	0.0939	0.293	0.22	0.289	0.236	0.284	0.661	0.381	0.77	0.317
LOU-NH91	0.767	0.783	0.607	0.309	0.288	0.368	0.451	0.471	0.314	0.335	0.832	0.832	0.846	0.759	0.759	0.885	0.663	0.716	0.769
LU99A	1	1.03	0.972	0.521	0.2	0.191	0.163	0.18	0.214	0.188	0.823	0.803	0.872	0.784		0.853	0.777	0.666	0.556
LXF-289	0.921	0.942	0.917	0.0958	0.101	0.947	0.933	0.909	0.108	0.125	0.325	0.394	0.402	0.344	0.398	0.555	0.477	0.547	0.526
NCI-H23	1.01	1.09	0.723	0.171	0.142	0.532	0.666	0.508	0.165	0.169	0.296	0.272	0.331		0.308	0.841	0.714	0.724	0.609
NCI-H322M	0.477	0.641	0.611	0.651	0.4	0.592	0.637	0.64	0.657	0.421		0.713	0.687	0.721	0.713	0.937	0.815	0.81	0.635
NCI-H358	0.377	0.53	0.404	0.177	0.139	0.169	0.164	0.173	0.136	0.102	0.184	0.215	0.2	0.241	0.214	0.396	0.325	0.351	0.327
NCI-H460	0.954	1.18	0.955	0.0195	0.0166	0.0648	0.0611	0.0649	0.0671	0.0245	0.451	0.511	0.476	0.645	0.452	0.598	0.44	0.443	0.233
NCI-H520	0.89	1.1	0.622	0.148	0.143	0.664	0.712	0.568	0.169	0.131	0.474	0.47	0.496	0.533	0.482	0.645	0.624	0.495	0.385
NCI-H596	0.965	1.03	1.01	0.805	0.207	0.486	0.519	0.421	0.329	0.244		0.993	1.01	1.08	1.11	0.76	0.732	0.653	0.66
NCI-H647	0.974	1.17	0.428	0.0287	0.0319	0.193	0.179	0.126	0.0407	0.0343	0.396	0.382	0.262	0.508	0.448	0.69	0.431	0.518	0.507
NCI-H650	0.61	1.33	1.04	0.361	0.18	0.954	1.04	1.27	0.781	0.137	0.332	0.291	0.323		0.343	0.541	0.423	0.473	0.429
NCI-H661	0.548	0.836	0.533	0.507	0.191	0.925	0.948	0.902	0.903	0.415	0.546	0.533	0.531	0.594	0.569	0.219	0.278	0.273	0.253
NCI-H838	0.889	1.33	1.05	0.2	0.119	0.268	0.254	0.246	0.209	0.136	0.433	0.473	0.473	0.483	0.474	0.569	0.589	0.641	0.589
NCI-H1355	0.872	1.08	1.08	0.941	0.168	1.01	1.03	1.08	1	0.282	0.348	0.344	0.392	0.338	0.346	0.478	0.433	0.47	0.432
NCI-H1395	0.897	1.55	0.841	0.318	0.311		0.873	0.756	0.33	0.287	0.661	0.688	0.743	0.791	0.732	0.419	0.4	0.423	0.396
NCI-H1437	0.78	0.931	0.832	0.431	0.139	0.282	0.352	0.334	0.273	0.286	0.547	0.551	0.613	0.61	0.578	0.301	0.27	0.279	0.296
NCI-H1650		0.781	0.264	0.165	0.154	0.343	0.403	0.312	0.154	0.166	0.3	0.455	0.466	0.396	0.468	0.446	0.475	0.405	0.537
NCI-H1651	0.696	0.742	0.16	0.113	0.101	0.561	0.649	0.536	0.197	0.082	0.592	0.407	0.63	0.326	0.591	0.365	0.326	0.234	0.195
NCI-H1666	0.611	0.755	0.747	0.407	0.193	0.896	0.914	0.898	0.799	0.562	0.744	0.651	0.715	0.712	0.673	0.575	0.545	0.502	0.523
NCI-H1734	1.03	1.11	1.02	0.317	0.203	0.398	0.436	0.432	0.366	0.19	0.466	0.5	0.493		0.493	0.46	0.325	0.35	0.372
NCI-H1755	1.05	1.12	1.02	0.922	0.279	0.42	0.497	0.475	0.37	0.311	0.639	0.713	0.755	0.694	0.661	0.62	0.593	0.592	0.575
NCI-H1792	0.794	0.896	0.939	0.985	0.697		0.937	0.773	0.49	0.0813	0.563	0.51	0.523		0.514	0.284	0.224	0.273	0.194
NCI-H1915	0.937	1.02	0.973	0.586	0.0673	0.559	0.516	0.578	0.59	0.0792	0.229	0.256	0.261	0.258	0.26	0.393	0.347	0.344	0.288
NCI-H1944	0.762	0.858	0.7	0.793	0.326	0.615	0.664	0.628	0.563	0.242	0.387	0.412	0.463	0.409	0.45	0.189	0.184	0.202	0.192
NCI-H1975	0.76	0.911	0.389	0.116	0.135	0.281	0.31	0.224	0.123	0.115	0.404	0.322	0.466	0.31	0.39	0.437	0.385	0.414	0.408
NCI-H1993	0.729	0.89	0.704	0.632	0.493	0.593	0.502	0.574	0.518	0.351	0.515	0.525	0.608	0.606	0.602	0.529	0.511	0.501	0.447
